Results from patent US10933056B2, “3-(1H-pyrazol-4-yl)pyridine allosteric modulators of the M4 muscarinic acetylcholine receptor” (Merck Sharp & Dohme Corp., priority 2015, dated 2021).

target: T1, human M4 muscarinic acetylcholine receptor (Homo sapiens, UniProt P08173); test: human FLIPR-based M4 PAM assay (calcium mobilization in CHO-K1 cells with human M4 receptor and Gαqi5); format: cell-based; conditions: inflection point of dose response curve, acetylcholine at 20% of maximum response, FLIPR Tetra, read-out: M4 PAM IP
T1 construct: expressed in transfected cells; host or cells: CHO-K1
T1 sequence (P08173 1-479): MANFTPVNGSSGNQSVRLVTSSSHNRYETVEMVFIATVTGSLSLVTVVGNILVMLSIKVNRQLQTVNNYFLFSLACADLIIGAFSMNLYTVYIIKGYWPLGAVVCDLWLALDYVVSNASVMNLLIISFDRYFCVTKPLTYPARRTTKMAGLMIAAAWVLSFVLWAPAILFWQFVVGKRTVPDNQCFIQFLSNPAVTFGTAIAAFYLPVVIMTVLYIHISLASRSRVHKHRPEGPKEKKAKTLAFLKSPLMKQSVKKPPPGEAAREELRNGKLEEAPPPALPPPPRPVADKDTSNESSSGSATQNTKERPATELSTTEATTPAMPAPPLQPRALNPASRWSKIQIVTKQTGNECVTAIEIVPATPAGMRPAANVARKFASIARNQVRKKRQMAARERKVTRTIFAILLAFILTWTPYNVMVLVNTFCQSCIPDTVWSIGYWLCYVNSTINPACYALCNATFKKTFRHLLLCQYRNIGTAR
In short: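 CHO-K1 cells stably expressing human M4 and chimeric Gαqi5 were dye-loaded ~1 h at 37° C. Test compound was added with fluorescence recorded 4 min, then acetylcholine at EC20 (sometimes a further EC70 addition) with reading 3.5 min. Value is the inflection point of a 4-parameter logistic fit.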

| Structure (SMILES) | EC50 [nM] |
| --- | --- |
| Cc1cc(-c2cnn(CC3(C)CCCC3)c2F)c(-c2ccc3c(c2)C(=O)N(C)C3)nc1Cl [Example 75, 6-(6-chloro-3-(5-fluoro-1-((1-methylcyclopentyl)methyl)-1H-pyrazol-4-yl)-5-methylpyridin-2-yl)-2-methylisoindolin-1-one] | 80 |
| Cc1ccc(-c2cnn(CC3CCCC3)c2F)c(-c2ccc3c(c2)C(=O)N(C)C3)n1 [Example 76, 6-(3-(1-(cyclopentylmethyl)-5-fluoro-1H-pyrazol-4-yl)-6-methylpyridin-2-yl)-2-methylisoindolin-1-one] | 9 |
| Cc1cc(-c2cnn(CC3(C)CCCC3)c2)c(-c2ccc3c(c2)C(=O)N(C)C3)nc1CO [Example 77, 6-(6-(hydroxymethyl)-5-methyl-3-(1-((1-methylcyclopentyl)methyl)-1H-pyrazol-4-yl)pyridin-2-yl)-2-methylisoindolin-1-one] | 85 |
| CN1Cc2ccc(-c3nc(C#N)c(Cl)cc3-c3cnn(CC4(C)CCCC4)c3)cc2C1=O [Example 78, 3-chloro-6-(2-methyl-3-oxoisoindolin-5-yl)-5-(1-((1-methylcyclopentyl)methyl)-1H-pyrazol-4-yl)picolinonitrile] | 32 |
| CN1Cc2ccc(-c3nc(C#N)ccc3-c3cnn(CC4(C)CCCC4)c3Cl)cc2C1=O [Example 79, 5-(5-chloro-1-((1-methylcyclopentyl)methyl)-1H-pyrazol-4-yl)-6-(2-methyl-3-oxoisoindolin-5-yl)picolinonitrile] | 108 |
| CN1Cc2ncc(-c3nc(C(F)F)ccc3-c3cnn(CC4(C)CCCC4)c3)cc2C1=O [Example 80, 3-(6-(difluoromethyl)-3-(1-((1-methylcyclopentyl)methyl)-1H-pyrazol-4-yl)pyridin-2-yl)-6-methyl-6,7-dihydro-5H-pyrrolo[3,4-b]pyridin-5-one] | 26 |
| CN1Cc2ncc(-c3nc(C(F)(F)F)ccc3-c3cnn(CC4(C)CCCC4)c3)cc2C1=O [Example 81, 6-methyl-3-(3-(1-((1-methylcyclopentyl)methyl)-1H-pyrazol-4-yl)-6-(trifluoromethyl)pyridin-2-yl)-6,7-dihydro-5H-pyrrolo[3,4-b]pyridin-5-one] | 46 |
| CC1(Cn2cc(-c3ccc(C#N)nc3-c3ccc4c(c3)C(=O)N(C3COC3)C4)cn2)CCCC1 [Example 82, 5-(1-((1-methylcyclopentyl)methyl)-1H-pyrazol-4-yl)-6-(2-(oxetan-3-yl)-3-oxoisoindolin-5-yl)picolinonitrile] | 310 |
| O=C1c2cc(-c3ncccc3-c3cnn(CC4CCCC4)c3)ccc2CN1c1ccccc1 [Example 83, 6-(3-(1-(cyclopentylmethyl)-1H-pyrazol-4-yl)pyridin-2-yl)-2-phenylisoindolin-1-one] | 100 |
| O=C1c2cc(-c3ncccc3-c3cnn(CC4CCCC4)c3)ccc2CN1CC1CC1 [Example 84, 6-(3-(1-(Cyclopentylmethyl)-1H-pyrazol-4-yl)pyridin-2-yl)-2-(cyclopropylmethyl)isoindolin-1-one] | 47 |
| O=C1c2cc(-c3ncccc3-c3cnn(CC4CCCC4)c3)ccc2CN1CC1CCCO1 (stereo not shown) [Example 85, 6-(3-(1-(cyclopentylmethyl)-1H-pyrazol-4-yl)pyridin-2-yl)-2-((tetrahydrofuran-2-yl)methyl)isoindolin-1-one] | 60 |
| O=C1c2cc(-c3ncccc3-c3cnn(CC4CCCC4)c3)ccc2CN1CC1CCC1 [Example 86, 2-(cyclobutylmethyl)-6-(3-(1-(cyclopentylmethyl)-1H-pyrazol-4-yl)pyridin-2-yl)isoindolin-1-one] | 62 |
| N#CC1(N2Cc3ccc(-c4ncccc4-c4cnn(CC5CCCC5)c4)cc3C2=O)CC1 [Example 87, 1-(6-(3-(1-(cyclopentylmethyl)-1H-pyrazol-4-yl)pyridin-2-yl)-1-oxoisoindolin-2-yl)cyclopropane-1-carbonitrile] | 319 |
| O=C1c2cc(-c3ncccc3-c3cnn(CC4CCCC4)c3)ccc2CN1C1COC1 [Example 88, 6-(3-(1-(cyclopentylmethyl)-1H-pyrazol-4-yl)pyridin-2-yl)-2-(oxetan-3-yl)isoindolin-1-one] | 240 |
| O=C1c2cc(-c3ncccc3-c3cnn(CC4CCCC4)c3)ccc2CN1C1CCC1 [Example 89, 2-cyclobutyl-6-(3-(1-(cyclopentylmethyl)-1H-pyrazol-4-yl)pyridin-2-yl)isoindolin-1-one] | 32 |
| CNC(=O)C1(N2Cc3ccc(-c4ncccc4-c4cnn(CC5CCCC5)c4)cc3C2=O)CC1 [Example 90, 1-(6-(3-(1-(cyclopentylmethyl)-1H-pyrazol-4-yl)pyridin-2-yl)-1-oxoisoindolin-2-yl)-N-methylcyclopropane-1-carboxamide] | 359 |

| Structure (SMILES) | EC50 [nM] |
| --- | --- |
| NS(=O)(=O)c1ccc(CCN2Cc3ccc(-c4ncccc4-c4cnn(CC5CCCC5)c4)cc3C2=O)cc1 [Example 91, 4-(2-(6-(3-(1-(cyclopentylmethyl)-1H-pyrazol-4-yl)pyridin-2-yl)-1-oxoisoindolin-2-yl)ethyl)benzenesulfonamide] | 49 |
| O=C1c2cc(-c3ncccc3-c3cnn(CC4CCCC4)c3)ccc2CN1CCc1ccccc1 [Example 92, 6-(3-(1-(cyclopentylmethyl)-1H-pyrazol-4-yl)pyridin-2-yl)-2-phenethylisoindolin-1-one] | 45 |
| O=C1c2cc(-c3ncccc3-c3cnn(CC4CCCC4)c3)ccc2CN1C1CC1 [Example 93, 6-(3-(1-(cyclopentyl-methyl)-1H-pyrazol-4-yl)pyridin-2-yl)-2-cyclopropylisoindolin-1-one] | 58 |
| O=C1c2cc(-c3ncccc3-c3cnn(CC4CCCC4)c3)ccc2CN1CCc1ccc(O)cc1 [Example 94, 6-(3-(1-(cyclopentylmethyl)-1H-pyrazol-4-yl)pyridin-2-yl)-2-(4-hydroxyphenethyl)isoindolin-1-one] | 29 |
| CN1Cc2ncc(-c3nc(C#N)ccc3-c3cnn(CC4(C)CCCC4)c3)cc2C1=O [Example 95, 6-(6-Methyl-5-oxo-6,7-dihydro-5H-pyrrolo[3,4-b]pyridin-3-yl)-5-(1-((1-methylcyclopentyl)methyl)-1H-pyrazol-4-yl)picolinonitrile] | 21 |
| CN1Cc2ccc(-c3ncccc3-c3cnn(CC4CCCC4)c3)cc2C1=O [Example 96, 6-(3-(1-(cyclopentylmethyl)-1H-pyrazol-4-yl)pyridin-2-yl)-2-methylisoindolin-1-one] | 56 |
| Cc1ccc(-c2cnn(CC3CCCC3)c2)c(-c2ccc3c(c2)C(=O)N(C)C3)n1 [Example 97, 6-(3-(1-(cyclopentylmethyl)-1H-pyrazol-4-yl)-6-methylpyridin-2-yl)-2-methylisoindolin-1-one] | 16 |
| Cc1ccc(-c2cnn(CC3(C)CCCC3)c2)c(-c2ccc3c(c2)C(=O)N(C)C3=O)n1 [Example 98, 2-methyl-5-(6-methyl-3-(1-((1-methylcyclopentyl)methyl)-1H-pyrazol-4-yl)pyridin-2-yl)isoindoline-1,3-dione] | 29 |
| Cc1ccc(-c2cnn(CC3(C)CCCC3)c2)c(-c2ccc3c(c2)C(=O)NC3=O)n1 [Example 99, 5-(6-methyl-3-(1-((1-methylcyclopentyl)methyl)-1H-pyrazol-4-yl)pyridin-2-yl)isoindoline-1,3-dione] | 19 |
| Cc1cc(-c2cnn(CC3(C)CCCC3)c2)c(-c2cnc3c(c2)C(=O)N(C)C3)nc1Cl [Example 100, 3-(6-chloro-5-methyl-3-(1-((1-methylcyclopentyl)methyl)-1H-pyrazol-4-yl)pyridin-2-yl)-6-methyl-6,7-dihydro-5H-pyrrolo[3,4-b]pyridin-5-one] | 26 |
| CC1(Cn2cc(-c3ccc(C#N)nc3-c3cnc4c(c3)C(=O)NC4)cn2)CCCC1 [Example 101, 5-(1-((1-methylcyclopentyl)methyl)-1H-pyrazol-4-yl)-6-(5-oxo-6,7-dihydro-5H-pyrrolo[3,4-b]pyridin-3-yl)picolinonitrile] | 18 |
| CC1(Cn2cc(-c3ccc(C#N)nc3-c3cnc4c(c3)C(=O)N(CC3CC3)C4)cn2)CCCC1 [Example 102, 6-(6-(cyclopropylmethyl)-5-oxo-6,7-dihydro-5H-pyrrolo[3,4-b]pyridin-3-yl)-5-(1-((1-methylcyclopentyl)methyl)-1H-pyrazol-4-yl)picolinonitrile] | 35 |
| CC1(Cn2cc(-c3ccc(C#N)nc3-c3cnc4c(c3)C(=O)N(CCF)C4)cn2)CCCC1 [Example 103, 6-(6-(2-fluoroethyl)-5-oxo-6,7-dihydro-5H-pyrrolo[3,4-b]pyridin-3-yl)-5-(1-((1-methylcyclopentyl)methyl)-1H-pyrazol-4-yl)picolinonitrile] | 33 |
| Cc1ccc(-c2cnn(CC3(C)CCCC3)c2)c(-c2ccc3c(c2)C(=O)NC3)n1 [Example 104, 6-(6-methyl-3-(1-((1-methylcyclopentyl)methyl)-1H-pyrazol-4-yl)pyridin-2-yl)isoindolin-1-one] | 14 |
| CC1(Cn2cc(-c3ccc(C#N)nc3-c3cnc4c(c3)C(=O)N(C3CC3)C4)cn2)CCCC1 [Example 105, 6-(6-cyclopropyl-5-oxo-6,7-dihydro-5H-pyrrolo[3,4-b]pyridin-3-yl)-5-(1-((1-methylcyclopentyl)methyl)-1H-pyrazol-4-yl)picolinonitrile] | 36 |
